Measured values published in patent US7271165B2, “Rifamycin analogs and uses thereof” (priority 2003, dated 2007).
≈ marks a conversion by molar mass, not a printed value.

Key:
S. pneumo. = assay: MIC assay, S. pneumo.; type: cell-based, Streptococcus pneumoniae
S. aureus = assay: MIC assay, S. aureus; type: cell-based, Staphylococcus aureus
H. flu = type: cell-based, H. influenza; conditions: H. flu
E. faecalis = assay: MIC assay, E. faecalis; type: cell-based, Enterococcus faecalis
E coli = assay: MIC assay, E coli; type: cell-based

Row | Compound | MIC (μg/mL) S. pneumo. (S. pneumo.) | MIC (μg/mL) S. aureus (S. aureus) | MIC (μg/mL) H. flu (H. flu) | MIC (μg/mL) E. faecalis (E. faecalis) | MIC (μg/mL) E coli (E coli)
1 | COC1C=COC2(C)Oc3c(C)c(O)c4c(=O)c(c5oc6cc(N7CCC(N)CC7)cc(O)c6nc-5c4c3C2=O)NC(=O)C(C)=CC=CC(C)C(O)C(C)C(O)C(C)C(O)C1C (centres unmarked) [Compound 39, 25-O-deacetyl-3′-hydroxy-5′-[4-amino-1-piperidinyl]benzoxazinorifamycin] | 0.001 µg/mL (≈ 1.17 nM) | 0.03 µg/mL (≈ 35 nM) | 0.25 µg/mL (≈ 292 nM) | 2 µg/mL (≈ 2330 nM) | >8 µg/mL
2 | COCCOC(=O)NC1CCN(c2cc(O)c3nc4c5c6c7c(C)c(O)c5c(=O)c(c-4oc3c2)NC(=O)C(C)=CC=CC(C)C(O)C(C)C(O)C(C)C(OC(C)=O)C(C)C(OC)C=COC(C)(O7)C6=O)CC1 (centres unmarked) [Compound 41, 3′-hydroxy-5′-[4-methoxyethylcarbamyl-1-piperidinyl]benzoxazinorifamycin] | 0.0005 µg/mL (≈ 0.499 nM) | 0.25 µg/mL (≈ 250 nM) | 2 µg/mL (≈ 2000 nM) | >8 µg/mL | >8 µg/mL
3 | COC1C=COC2(C)Oc3c(C)c(O)c4c(=O)c(c5oc6cc(N7CCC(NC(C)=O)CC7)cc(O)c6nc-5c4c3C2=O)NC(=O)C(C)=CC=CC(C)C(O)C(C)C(O)C(C)C(O)C1C (centres unmarked) [Compound 43, 25-O-deacetyl-3′-hydroxy-5′-[4-acetamide-1-piperidinyl]benzoxazinorifamycin] | 0.002 µg/mL (≈ 2.22 nM) | 0.03 µg/mL (≈ 33.4 nM) | 0.5 µg/mL (≈ 556 nM) | 2 µg/mL (≈ 2220 nM) | >8 µg/mL
4 | COC1C=COC2(C)Oc3c(C)c(O)c4c(=O)c(c5oc6cc(N7CCC(NC(C)=O)CC7)cc(O)c6nc-5c4c3C2=O)NC(=O)C(C)=CC=CC(C)C(O)C(C)C(O)C(C)C(OC(C)=O)C1C (centres unmarked) [Compound 44] | 0.008 µg/mL (≈ 8.5 nM) | 0.06 µg/mL (≈ 63.8 nM) | 0.25 µg/mL (≈ 266 nM) | 2 µg/mL (≈ 2130 nM) | >8 µg/mL
5 | COC1C=COC2(C)Oc3c(C)c(O)c4c(=O)c(c5oc6cc(N7CCC(NC(=O)SC)CC7)cc(O)c6nc-5c4c3C2=O)NC(=O)C(C)=CC=CC(C)C(O)C(C)C(O)C(C)C(OC(C)=O)C1C (centres unmarked) [Compound 45, 3′-hydroxy-5′-[4-S-methylthiocarbamyl-1-piperidinyl]benzoxazinorifamycin] | 0.001 µg/mL (≈ 1.03 nM) | 0.015 µg/mL (≈ 15.4 nM) | 0.5 µg/mL (≈ 514 nM) | 4 µg/mL (≈ 4110 nM) | 8 µg/mL (≈ 8220 nM)
6 | COC1C=COC2(C)Oc3c(C)c(O)c4c(=O)c(c5oc6cc(N7CC8CCCN(C(C)=O)C8C7)cc(O)c6nc-5c4c3C2=O)NC(=O)C(C)=CC=CC(C)C(O)C(C)C(O)C(C)C(O)C1C [Compound 46, 25-O-deacetyl-3′-hydroxy-5′-[1-acetyl-(4aR,7aR)-octahydro-6H-pyrrolo[3,4-b]pyridin-6-yl]benzoxazinorifamycin] | 0.00006 µg/mL (≈ 0.0649 nM) | 0.004 µg/mL (≈ 4.32 nM) | 0.5 µg/mL (≈ 541 nM) | 2 µg/mL (≈ 2160 nM) | >8 µg/mL
7 | COC1C=COC2(C)Oc3c(C)c(O)c4c(=O)c(c5oc6cc(N7CC8CCCN(C(C)=O)C8C7)cc(O)c6nc-5c4c3C2=O)NC(=O)C(C)=CC=CC(C)C(O)C(C)C(O)C(C)C(OC(C)=O)C1C [Compound 47, 3′-hydroxy-5′-[1-acetyl-(4aR,7aR)-octahydro-6H-pyrrolo[3,4-b]pyridin-6-yl]benzoxazinorifamycin] | 0.002 µg/mL (≈ 2.07 nM) | 0.008 µg/mL (≈ 8.27 nM) | 0.25 µg/mL (≈ 259 nM) | 1 µg/mL (≈ 1030 nM) | >8 µg/mL
8 | COC1C=COC2(C)Oc3c(C)c(O)c4c(=O)c(c5oc6cc(N7CCC(NC(=O)OC(C)(C)C)CC7)cc(O)c6nc-5c4c3C2=O)NC(=O)C(C)=CC=CC(C)C(O)C(C)C(O)C(C)C(OC(C)=O)C1C (centres unmarked) [Compound 48] | 0.00025 µg/mL (≈ 0.25 nM) | 0.008 µg/mL (≈ 8.01 nM) | 1 µg/mL (≈ 1000 nM) | 2 µg/mL (≈ 2000 nM) | >8 µg/mL
9 | COC1C=COC2(C)Oc3c(C)c(O)c4c(=O)c(c5oc6cc(N7CCC(NC(=O)N8CCC(NC(=O)SC)CC8)CC7)cc(O)c6nc-5c4c3C2=O)NC(=O)C(C)=CC=CC(C)C(O)C(C)C(O)C(C)C(OC(C)=O)C1C (centres unmarked) [Compound 49, 3′-hydroxy-5′-[4-(4-(S-methylthiocarbamyl)-1-piperidinylcarbonyl)amino-1-piperidinyl]benzoxazinorifamycin] | 0.0005 µg/mL (≈ 0.455 nM) | 0.06 µg/mL (≈ 54.6 nM) | 2 µg/mL (≈ 1820 nM) | 8 µg/mL (≈ 7280 nM) | >8 µg/mL
10 | COC1C=COC2(C)Oc3c(C)c(O)c4c(=O)c(c5oc6cc(N7CCC(NC(=O)N8CCN(C)CC8)CC7)cc(O)c6nc-5c4c3C2=O)NC(=O)C(C)=CC=CC(C)C(O)C(C)C(O)C(C)C(OC(C)=O)C1C (centres unmarked) [Compound 50, 3′-hydroxy-5′-[4-(4-methylpiperazinylcarbonyl)amino-1-piperidinyl]benzoxazinorifamycin] | 0.00012 µg/mL (≈ 0.117 nM) | 0.03 µg/mL (≈ 29.3 nM) | 0.5 µg/mL (≈ 488 nM) | 4 µg/mL (≈ 3900 nM) | >8 µg/mL
11 | CCOC(=O)NCC1CCN(c2cc(O)c3nc4c5c6c7c(C)c(O)c5c(=O)c(c-4oc3c2)NC(=O)C(C)=CC=CC(C)C(O)C(C)C(O)C(C)C(OC(C)=O)C(C)C(OC)C=COC(C)(O7)C6=O)CC1 (centres unmarked) [Compound 51] | 0.002 µg/mL (≈ 2.03 nM) | 0.06 µg/mL (≈ 60.9 nM) | 0.25 µg/mL (≈ 254 nM) | 8 µg/mL (≈ 8120 nM) | 8 µg/mL (≈ 8120 nM)
12 | COC1C=COC2(C)Oc3c(C)c(O)c4c(=O)c(c5oc6cc(N7CCC(NC(=O)OC(C)(C)C)CC7)cc(O)c6nc-5c4c3C2=O)NC(=O)C(C)=CC=CC(C)C(O)C(C)C(O)C(C)C(O)C1C (centres unmarked) [Compound 52, 25-O-deacetyl-3′-hydroxy-5′-[4-(2,2-dimethylethyl)carbamyl-1-piperidinyl]benzoxazinorifamycin] | 0.00025 µg/mL (≈ 0.261 nM) | 0.015 µg/mL (≈ 15.7 nM) | 0.12 µg/mL (≈ 125 nM) | 4 µg/mL (≈ 4180 nM) | >8 µg/mL
13 | COC1C=COC2(C)Oc3c(C)c(O)c4c(=O)c(c5oc6cc(N7CC8C(C7)C8N(C)C)cc(O)c6nc-5c4c3C2=O)NC(=O)C(C)=CC=CC(C)C(O)C(C)C(O)C(C)C(OC(C)=O)C1C [Compound 53, 3′-hydroxy-5′-[6-N,N-dimethylamino-(1R,5S)-3-azabicyclo[3.1.0]hex-3-yl]benzoxazinorifamycin] | 0.008 µg/mL (≈ 8.65 nM) | 0.06 µg/mL (≈ 64.9 nM) | 2 µg/mL (≈ 2160 nM) | 4 µg/mL (≈ 4320 nM) | >8 µg/mL
14 | COC1C=COC2(C)Oc3c(C)c(O)c4c(=O)c(c5oc6cc(N7CC8C(C7)C8N(C)C)cc(O)c6nc-5c4c3C2=O)NC(=O)C(C)=CC=CC(C)C(O)C(C)C(O)C(C)C(O)C1C [Compound 54, 3′-hydroxy-5′-[6-N,N-dimethylamino-(1R,5S)-3-azabicyclo[3.1.0]hex-3-yl]benzoxazinorifamycin] | 0.0005 µg/mL (≈ 0.566 nM) | 0.008 µg/mL (≈ 9.06 nM) | 0.25 µg/mL (≈ 283 nM) | 2 µg/mL (≈ 2260 nM) | >8 µg/mL
15 | COC1C=COC2(C)Oc3c(C)c(O)c4c(=O)c(c5oc6cc(N7CCC(CNC(C)=O)CC7)cc(O)c6nc-5c4c3C2=O)NC(=O)C(C)=CC=CC(C)C(O)C(C)C(O)C(C)C(OC(C)=O)C1C (centres unmarked) [Compound 55, 3′-hydroxy-5′-[4-acetylaminomethyl-1-piperidinyl]benzoxazinorifamycin] | 0.00025 µg/mL (≈ 0.262 nM) | 0.008 µg/mL (≈ 8.38 nM) | 0.5 µg/mL (≈ 524 nM) | 1 µg/mL (≈ 1050 nM) | 8 µg/mL (≈ 8380 nM)
16 | COC1C=COC2(C)Oc3c(C)c(O)c4c(=O)c(c5oc6cc(N7CCC(CNC(C)=O)CC7)cc(O)c6nc-5c4c3C2=O)NC(=O)C(C)=CC=CC(C)C(O)C(C)C(O)C(C)C(O)C1C (centres unmarked) [Compound 56, 25-O-deacetyl-3′-hydroxy-5′-[4-acetylaminomethyl-1-piperidinyl]benzoxazinorifamycin] | 0.001 µg/mL (≈ 1.1 nM) | 0.004 µg/mL (≈ 4.38 nM) | 0.25 µg/mL (≈ 274 nM) | 0.12 µg/mL (≈ 131 nM) | 8 µg/mL (≈ 8760 nM)
17 | COC1C=COC2(C)Oc3c(C)c(O)c4c(=O)c(c5oc6cc(N7CCC(c8ccccc8)CC7)cc(O)c6nc-5c4c3C2=O)NC(=O)C(C)=CC=CC(C)C(O)C(C)C(O)C(C)C(OC(C)=O)C1C (centres unmarked) [Compound 57, 3′-hydroxy-5′-[4-phenyl-1-piperidinyl]benzoxazinorifamycin] | 0.0005 µg/mL (≈ 0.521 nM) | 0.008 µg/mL (≈ 8.33 nM) | 0.5 µg/mL (≈ 521 nM) | 2 µg/mL (≈ 2080 nM) | 8 µg/mL (≈ 8330 nM)
18 | COC1C=COC2(C)Oc3c(C)c(O)c4c(=O)c(c5oc6cc(N7CC8CCCN(C)C8C7)cc(O)c6nc-5c4c3C2=O)NC(=O)C(C)=CC=CC(C)C(O)C(C)C(O)C(C)C(OC(C)=O)C1C [Compound 58, 3′-hydroxy-5′-[1-methyl-(4aS,7aS)-octahydro-6H-pyrrolo[3,4-b]pyridin-6-yl]benzoxazinorifamycin] | 0.004 µg/mL (≈ 4.26 nM) | 0.03 µg/mL (≈ 31.9 nM) | 0.25 µg/mL (≈ 266 nM) | 1 µg/mL (≈ 1060 nM) | >8 µg/mL
19 | COC1C=COC2(C)Oc3c(C)c(O)c4c(=O)c(c5oc6cc(N7CC8CCCN(C)C8C7)cc(O)c6nc-5c4c3C2=O)NC(=O)C(C)=CC=CC(C)C(O)C(C)C(O)C(C)C(O)C1C [Compound 59, 25-O-deacetyl-3′-hydroxy-5′-[1-methyl-(4aS,7aS)-octahydro-6H-pyrrolo[3,4-b]pyridin-6-yl]benzoxazinorifamycin] | 0.001 µg/mL (≈ 1.11 nM) | 0.004 µg/mL (≈ 4.46 nM) | 0.12 µg/mL (≈ 134 nM) | 0.06 µg/mL (≈ 66.9 nM) | 4 µg/mL (≈ 4460 nM)
